{
  "source": "patent US9085555B2",
  "about": "“Complement pathway modulators and uses thereof” (priority 2011, dated 2015)",
  "molecular_target": "Factor D (Homo sapiens (Human), UniProt P00746)",
  "sequence (P00746 26-253)": "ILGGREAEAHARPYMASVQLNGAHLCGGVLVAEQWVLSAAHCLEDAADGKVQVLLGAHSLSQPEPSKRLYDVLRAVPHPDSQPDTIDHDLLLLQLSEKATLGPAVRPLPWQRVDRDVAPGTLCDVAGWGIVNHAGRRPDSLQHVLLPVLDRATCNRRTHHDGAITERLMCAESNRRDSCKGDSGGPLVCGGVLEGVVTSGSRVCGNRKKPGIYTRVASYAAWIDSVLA",
  "assay": "biochemical",
  "type": "biochemical",
  "conditions": "read-out: IC50",
  "data": [
    {"compound": "CO[C@H]1[C@@H](C(=O)NCc2cccc(Cl)c2F)N(C(=O)Nc2cn(C(N)=O)c3ccccc23)C[C@@H]1F", "note": "[Example 204, (2S,3S,4S)-4-Fluoro-3-methoxy-pyrrolidine-1,2-dicarboxylic acid 1-[(1-carbamoyl-1H-indol-3-yl)-amide] 2-(3-chloro-2-fluoro-benzylamide)]", "values": [
      {"measurement": "IC50", "result": 7, "unit": "nM"}
    ]},
    {"compound": "C[C@@]1(F)C[C@@H](C(=O)NCc2cccc(Cl)c2F)N(C(=O)Nc2cn(C(N)=O)c3ccccc23)C1", "note": "[Example 205, (2S,4R)-4-Fluoro-4-methyl-pyrrolidine-1,2-dicarboxylic acid 1-[(1-carbamoyl-1H-indol-3-yl)-amide] 2-(3-chloro-2-fluoro-benzylamide)]", "values": [
      {"measurement": "IC50", "result": 14, "unit": "nM"}
    ]},
    {"compound": "CC(=O)N[C@H]1[C@@H](C(=O)NCc2cccc(Cl)c2F)N(C(=O)Nc2cn(C(N)=O)c3ccccc23)C[C@@H]1F", "note": "[Example 206, (2S,3S,4S)-3-Acetylamino-4-fluoro-pyrrolidine-1,2-dicarboxylic acid 1-[(1-carbamoyl-1H-indol-3-yl)-amide] 2-(3-chloro-2-fluoro-benzylamide)]", "values": [
      {"measurement": "IC50", "result": 187, "unit": "nM"}
    ]},
    {"compound": "NC(=O)n1cc(NC(=O)N2C[C@@H]3C[C@@H]3[C@H]2C(=O)N[C@H](CO)c2cccc(Cl)c2F)c2ccccc21", "note": "[Example 207, (1S,2S,5R)-3-Azabicyclo[3.1.0]hexane-2,3-dicarboxylic acid 3-[(1-carbamoyl-1H-indol-3-yl)-amide] 2-{[(S)-1-(3-chloro-2-fluoro-phenyl)-2-hydroxy-ethyl]-amide}]", "values": [
      {"measurement": "IC50", "result": 321, "unit": "nM"}
    ]},
    {"compound": "NC(=O)n1cc(NC(=O)N2CC[C@H](F)[C@H]2C(=O)NCc2cccc(Cl)c2F)c2ccccc21", "note": "[Example 208, (2R,3S)-3-Fluoro-pyrrolidine-1,2-dicarboxylic acid 1-[(1-carbamoyl-1H-indol-3-yl)-amide] 2-(3-chloro-2-fluoro-benzylamide)]", "values": [
      {"measurement": "IC50", "result": 29, "unit": "nM"}
    ]},
    {"compound": "NC(=O)n1cc(NC(=O)N2C[C@](F)(CN3CCOCC3)C[C@H]2C(=O)NCc2cccc(Cl)c2F)c2ccccc21", "note": "[Example 209, (2S,4R)-4-Fluoro-morpholin-4-ylmethyl-pyrrolidine-1,2-dicarboxylic acid 1-[(1-carbamoyl-1H-indol-3-yl)-amide] 2-(3-chloro-2-fluoro-benzylamide)]", "values": [
      {"measurement": "IC50", "result": 1900, "unit": "nM"}
    ]},
    {"compound": "NC(=O)n1cc(NC(=O)N2C[C@H]3C[C@H]3[C@H]2C(=O)NCc2cccc(Cl)c2F)c2ccccc21", "note": "[Example 210, (1R,2S,5S)-3-Aza-bicyclo[3.1.0]hexane-2,3-dicarboxylic acid 3-[(1-carbamoyl-1H-indol-3-yl)-amide] 2-(3-chloro-2-fluoro-benzylamide)]", "values": [
      {"measurement": "IC50", "result": 22, "unit": "nM"}
    ]},
    {"compound": "CC(=O)N[C@@H]1CN(C(=O)Nc2cn(C(N)=O)c3ccccc23)[C@H](C(=O)NCc2cccc(Cl)c2F)[C@H]1F", "note": "[Example 211, (2R,3S,4R)-4-Acetylamino-3-fluoro-pyrrolidine-1,2-dicarboxylic acid 1-[(1-carbamoyl-1H-indol-3-yl)-amide] 2-(3-chloro-2-fluoro-benzylamide)]", "values": [
      {"measurement": "IC50", "result": 1320, "unit": "nM"}
    ]},
    {"compound": "NC(=O)n1cc(NC(=O)N2C[C@H]3C[C@H]3[C@H]2C(=O)N[C@H](CO)c2cccc(Cl)c2F)c2ccccc21", "note": "[Example 212, (1R,2S,5S)-3-Azabicyclo[3.1.0]hexane-2,3-dicarboxylic acid 3-[(1-carbamoyl-1H-indol-3-yl)-amide] 2-{[(S)-1-(3-chloro-2-fluoro-phenyl)-2-hydroxy-ethyl]-amide}]", "values": [
      {"measurement": "IC50", "result": 10, "unit": "nM"}
    ]},
    {"compound": "NC(=O)n1cc(NC(=O)N2CC[C@@H](O)[C@H]2C(=O)NCc2cccc(Cl)c2F)c2ccccc21", "note": "[Example 213, (2S,3R)-3-Hydroxy-pyrrolidine-1,2-dicarboxylic acid 1-[(1-carbamoyl-1H-indol-3-yl)-amide] 2-(3-chloro-2-fluoro-benzylamide)]", "values": [
      {"measurement": "IC50", "result": 12, "unit": "nM"}
    ]},
    {"compound": "COC[C@@]12C[C@@H]1N(C(=O)Nc1cn(C(N)=O)c3ccccc13)[C@H](C(=O)NCc1cccc(Cl)c1F)C2", "note": "[Example 214, (1S,3S,5R)-5-Methoxymethyl-2-aza-bicyclo[3.1.0]hexane-2,3-dicarboxylic acid 2-[(1-carbamoyl-1H-indol-3-yl)-amide] 3-(3-chloro-2-fluoro-benzylamide)]", "values": [
      {"measurement": "IC50", "result": 1570, "unit": "nM"}
    ]},
    {"compound": "NC(=O)n1cc(NC(=O)N2C[C@H](F)C[C@H]2C(=O)NCc2cncc(F)c2)c2ccccc21", "note": "[Example 215, (2S,4R)-4-Fluoro-pyrrolidine-1,2-dicarboxylic acid 1-[(1-carbamoyl-1H-indol-3-yl)-amide] 2-[(5-fluoro-pyridin-3-ylmethyl)-amide]]", "values": [
      {"measurement": "IC50", "result": 386, "unit": "nM"}
    ]},
    {"compound": "COc1ccc2c(NC(=O)N3C4CC4C[C@H]3C(=O)NCc3cccc(Cl)c3F)cn(C(N)=O)c2c1", "note": "(stereo partly drawn) [Example 216, (1R,3S,5R)-2-Aza-bicyclo[3.1.0]hexane-2,3-dicarboxylic acid 2-[(1-carbamoyl-6-methoxy-1H-indol-3-yl)-amide] 3-(3-chloro-2-fluoro-benzylamide)]", "values": [
      {"measurement": "IC50", "result": 65, "unit": "nM"}
    ]},
    {"compound": "NC(=O)n1cc(NC(=O)N2[C@@H]3C[C@@H]3C[C@H]2C(=O)N[C@H](CO)c2cccc(Br)c2)c2ccccc21", "note": "[Example 217, (1R,3S,5R)-2-Azabicyclo[3.1.0]hexane-2,3-dicarboxylic acid 3-{[(S)-1-(3-bromo-phenyl)-2-hydroxy-ethyl]-amide} 2-[(1-carbamoyl-1H-indol-3-yl)-amide]]", "values": [
      {"measurement": "IC50", "result": 41, "unit": "nM"}
    ]},
    {"compound": "COC(=O)c1cccc(NC(=O)[C@@H]2CCCN2C(=O)Nc2cn(C(N)=O)c3ccccc23)c1", "note": "[Example 219, 3-{[(S)-1-(1-Carbamoyl-1H-indol-3-ylcarbamoyl)-pyrrolidine-2-carbonyl]-amino}-benzoic acid methyl ester]", "values": [
      {"measurement": "IC50", "result": 1850, "unit": "nM"}
    ]},
    {"compound": "NC(=O)n1cc(NC(=O)N2CCCC[C@H]2C(=O)NCc2cccc(Cl)c2F)c2ccccc21", "note": "[Example 220, (S)-Piperidine-1,2-dicarboxylic acid 1-[(1-carbamoyl-1H-indol-3-yl)-amide] 2-(3-chloro-2-fluoro-benzylamide)]", "values": [
      {"measurement": "IC50", "result": 233, "unit": "nM"}
    ]},
    {"compound": "CC(=O)NC[C@@]1(F)C[C@@H](C(=O)NCc2cccc(Cl)c2F)N(C(=O)Nc2cn(C(N)=O)c3ccccc23)C1", "note": "[Example 221, (2S,4S)-4-(Acetylamino-methyl)-4-fluoro-pyrrolidine-1,2-dicarboxylic acid 1-[(1-carbamoyl-1H-indol-3-yl)-amide] 2-(3-chloro-2-fluoro-benzylamide)]", "values": [
      {"measurement": "IC50", "result": 23, "unit": "nM"}
    ]},
    {"compound": "NC(=O)n1cc(NC(=O)N2C[C@H](F)C[C@H]2C(=O)NCc2cccc(C(F)(F)F)c2F)c2ccccc21", "note": "[Example 222, (2S,4R)-4-Fluoro-pyrrolidine-1,2-dicarboxylic acid 1-[(1-carbamoyl-1H-indol-3-yl)-amide] 2-(2-fluoro-3-trifluoromethyl-benzylamide)]", "values": [
      {"measurement": "IC50", "result": 137, "unit": "nM"}
    ]},
    {"compound": "NC(=O)n1cc(NC(=O)N2[C@@H]3C[C@@H]3C[C@H]2C(=O)N[C@H](CCO)c2cccc(Cl)c2F)c2ccccc21", "note": "[Example 223, (1R,3S,5R)-2-Azabicyclo[3.1.0]hexane-2,3-dicarboxylic acid 2-[(1-carbamoyl-1H-indol-3-yl)-amide] 3-{[(R)-1-(3-chloro-2-fluoro-phenyl)-3-hydroxy-propyl]-amide}]", "values": [
      {"measurement": "IC50", "result": 12, "unit": "nM"}
    ]},
    {"compound": "COc1ccc(CNC(=O)[C@@H]2SCCN2C(=O)Nc2cn(C(N)=O)c3ccccc23)c(F)c1F", "note": "[Example 225, (S)-Thiazolidine-2,3-dicarboxylic acid 3-[(1-carbamoyl-1H-indol-3-yl)-amide] 2-(2,3-difluoro-4-methoxy-benzylamide)]", "values": [
      {"measurement": "IC50", "result": 350, "unit": "nM"}
    ]},
    {"compound": "NC(=O)n1cc(NC(=O)N2[C@@H]3C[C@@H]3C[C@H]2C(=O)NCc2cccnc2)c2ccccc21", "note": "[Example 226, (1R,3S,5R)-2Azabicyclo[3.1.0]hexane-2,3-dicarboxylic acid 2-[(1-carbamoyl-1H-indol-3-yl)amide] 3-[(pyridin-3-ylmethyl)-amide]]", "values": [
      {"measurement": "IC50", "result": 417, "unit": "nM"}
    ]},
    {"compound": "C[C@H]1CCN(C(=O)Nc2cn(C(N)=O)c3ccccc23)[C@@H]1C(=O)Nc1cccc(OC(F)(F)F)c1", "note": "[Example 227, (2S,3S)-3-Methyl-pyrrolidine-1,2-dicarboxylic acid 1-[(1-carbamoyl-1H-indol-3-yl)-amide] 2-[(3-trifluoromethoxy-phenyl)-amide]]", "values": [
      {"measurement": "IC50", "result": 800, "unit": "nM"}
    ]},
    {"compound": "NC(=O)n1cc(NC(=O)N2C3CC3C[C@H]2C(=O)NCc2cncc(Cl)c2)c2ccccc21", "note": "(stereo partly drawn) [Example 228, (1R,3S,5R)-2-Aza-bicyclo[3.1.0]hexane-2,3-dicarboxylic acid 2-[(1-carbamoyl-1H-indol-3-yl)-amide] 3-[(5-chloro-pyridin-3-ylmethyl)-amide]]", "values": [
      {"measurement": "IC50", "result": 100, "unit": "nM"}
    ]},
    {"compound": "C[C@@]1(F)C[C@@H](C(=O)N[C@H](CCO)c2cccc(Cl)c2F)N(C(=O)Nc2cn(C(N)=O)c3ccccc23)C1", "note": "[Example 229, (2S,4R)-4-Fluoro-4-methyl-pyrrolidine-1,2-dicarboxylic acid 1-[(1-carbamoyl-1H-indol-3-yl)-amide] 2-{[(R)-1-(3-chloro-2-fluoro-phenyl)-3-hydroxy-propyl]-amide}]", "values": [
      {"measurement": "IC50", "result": 29, "unit": "nM"}
    ]},
    {"compound": "NC(=O)n1cc(NC(=O)N2C[C@H](F)C[C@H]2C(=O)NCc2ccncc2F)c2ccccc21", "note": "[Example 230, (2S,4R)-4-Fluoro-pyrrolidine-1,2-dicarboxylic acid 1-[(1-carbamoyl-1H-indol-3-yl)-amide] 2-[(3-fluoro-pyridin-4-ylmethyl)-amide]]", "values": [
      {"measurement": "IC50", "result": 2550, "unit": "nM"}
    ]},
    {"compound": "COC[C@@H](NC(=O)[C@@H]1[C@@H]2C[C@@H]2CN1C(=O)Nc1cn(C(N)=O)c2ccccc12)c1cccc(Cl)c1F", "note": "[Example 231, (1R,2S,5S)-3-Aza-bicyclo[3.1.0]hexane-2,3-dicarboxylic acid 3-[(1-carbamoyl-1H-indol-3-yl)-amide] 2-{[(S)-1-(3-chloro-2-fluoro-phenyl)-2-methoxy-ethyl]-amide}]", "values": [
      {"measurement": "IC50", "result": 103, "unit": "nM"}
    ]},
    {"compound": "NC(=O)n1cc(NC(=O)N2C[C@H](F)C[C@H]2C(=O)NCc2ccnc(C(F)(F)F)c2F)c2ccccc21", "note": "[Example 232, (2S,4R)-4-Fluoro-pyrrolidine-1,2-dicarboxylic acid 1-[(1-carbamoyl-1H-indol-3-yl)-amide] 2-[(3-fluoro-2-trifluoromethyl-pyridin-4-ylmethyl)-amide]]", "values": [
      {"measurement": "IC50", "result": 989, "unit": "nM"}
    ]},
    {"compound": "NC(=O)n1cc(NC(=O)N2CCC[C@H]2C(=O)Nc2cccc(S(N)(=O)=O)c2)c2ccccc21", "note": "[Example 233, (S)-Pyrrolidine-1,2-dicarboxylic acid 1-[(1-carbamoyl-1H-indol-3-yl)-amide] 2-[(3-sulfamoyl-phenyl)-amide]]", "values": [
      {"measurement": "IC50", "result": 850, "unit": "nM"}
    ]}
  ]
}
